For the assay, the target named is T1, CaV2.2 (Homo sapiens, UniProt Q00975).
T1 construct: expressed in transfected cells; host or cells: HEK293
Description: VIPR optical membrane potential assay with electrical stimulation, CaV2.2. Type of assay: cell-based. The following applies: Table 9, CaV 2.2 receptors. Here is the method: A. Optical Methods for Assaying CaV Inhibition Properties of Compounds:
Antagonist properties of test compounds were assessed as follows. Cells expressing the CaV of interest were placed into microtiter plates. After an incubation period, the cells were stained with fluorescent dyes sensitive to the transmembrane potential. The test compounds were added to the microtiter plate. The cells were stimulated with electrical means to evoke a CaV dependent membrane potential change from unblocked channels, which was detected and measured with trans-membrane potential-sensitive dyes. Antagonists were detected as a decreased membrane potential response to the stimulus.
VIPR® Optical Membrane Potential Assay Method with Electrical Stimulation
The following is an example of how CaV2.2 inhibition activity is measured using the optical membrane potential method. Other subtypes are performed in an analogous mode in a cell line expressing the CaV of interest.
HEK293 cells stably expressing CaV2.2 are plated into 96-well microtiter plates. After an appropriate incubation period, the cells are stained with the voltage sensitive dyes CC2-DMPE/DiSBAC2(3) as follows.
2X CC2-DMPE=20 μM CC2-DMPE: 10 mM CC2-DMPE is vortexed with an equivalent volume of 10% Pluronic, followed by vortexing in required amount of HBSS containing 10 mM HEPES. Each cell plate will require 5 mL of 2×CC2-DMPE. 50 μL of 2×CC2-DMPE is added to wells containing washed cells, resulting in a 10 μM final staining concentration. The cells are stained for 30 minutes in the dark at RT.
Vortex in required amount of Bath X with beta-cyclodextrin. Each 96 well cell plate will require 5 ml of 2XCC2DMPE. Wash plate with ELx405 with Bath X, leaving a residual volume of 50 μL/well. Add 50 μL of 2XCC2DMPE & […] to each well. Stain for 30 minutes in the dark at RT.
Allow solution to sit for 10 minutes. Slowly mix in 370 mM BaCl2. This solution can be used to solvate compound plates. Note that compound plates are made at 1.5× drug concentration and not the usual 2X. Wash CC2 stained plate, again, leaving residual volume of 50 μL. Add 100 uL/well of the AY17 solution. Stain for 15 minutes in the dark at RT. Run plate on the optical reader.
The instrument comprises a microtiter plate handler, an optical system for exciting the coumarin dye while simultaneously recording the coumarin and oxonol emissions, a waveform generator, a current- or voltage-controlled amplifier, and a device for inserting electrodes in well. Under integrated computer control, this instrument passes user-programmed electrical stimulus protocols to cells within the wells of the microtiter plate.
Insert or use electrodes into each well to be assayed.
Use the current-controlled amplifier to deliver stimulation wave pulses for 3-5 s. Two seconds of pre-stimulus recording are performed to obtain the un-stimulated intensities. Five seconds of post-stimulation recording are performed to examine the relaxation to the resting state.
Data are analyzed and reported as normalized ratios of background-subtracted emission intensities measured in the 460 nm and 580 nm channels. Background intensities are then subtracted from each assay channel. Background intensities are obtained by measuring the emission intensities during the same time periods from identically treated assay wells in which there are no cells. The response as a function of time is then reported as the ratios obtained using the following formula: […]
The data is further reduced by calculating the initial (Ri) and final (Rf) ratios. These are the average ratio values during part or all of the pre-stimulation period, and during sample points during the stimulation period. The response to the stimulus R=Rf/Ri is then calculated.
Control responses are obtained by performing assays in the presence of a compound with the desired properties (positive control), such as mibefradil, and in the absence of pharmacological agents (negative control).

T1 sequence (Q00975 whole entry): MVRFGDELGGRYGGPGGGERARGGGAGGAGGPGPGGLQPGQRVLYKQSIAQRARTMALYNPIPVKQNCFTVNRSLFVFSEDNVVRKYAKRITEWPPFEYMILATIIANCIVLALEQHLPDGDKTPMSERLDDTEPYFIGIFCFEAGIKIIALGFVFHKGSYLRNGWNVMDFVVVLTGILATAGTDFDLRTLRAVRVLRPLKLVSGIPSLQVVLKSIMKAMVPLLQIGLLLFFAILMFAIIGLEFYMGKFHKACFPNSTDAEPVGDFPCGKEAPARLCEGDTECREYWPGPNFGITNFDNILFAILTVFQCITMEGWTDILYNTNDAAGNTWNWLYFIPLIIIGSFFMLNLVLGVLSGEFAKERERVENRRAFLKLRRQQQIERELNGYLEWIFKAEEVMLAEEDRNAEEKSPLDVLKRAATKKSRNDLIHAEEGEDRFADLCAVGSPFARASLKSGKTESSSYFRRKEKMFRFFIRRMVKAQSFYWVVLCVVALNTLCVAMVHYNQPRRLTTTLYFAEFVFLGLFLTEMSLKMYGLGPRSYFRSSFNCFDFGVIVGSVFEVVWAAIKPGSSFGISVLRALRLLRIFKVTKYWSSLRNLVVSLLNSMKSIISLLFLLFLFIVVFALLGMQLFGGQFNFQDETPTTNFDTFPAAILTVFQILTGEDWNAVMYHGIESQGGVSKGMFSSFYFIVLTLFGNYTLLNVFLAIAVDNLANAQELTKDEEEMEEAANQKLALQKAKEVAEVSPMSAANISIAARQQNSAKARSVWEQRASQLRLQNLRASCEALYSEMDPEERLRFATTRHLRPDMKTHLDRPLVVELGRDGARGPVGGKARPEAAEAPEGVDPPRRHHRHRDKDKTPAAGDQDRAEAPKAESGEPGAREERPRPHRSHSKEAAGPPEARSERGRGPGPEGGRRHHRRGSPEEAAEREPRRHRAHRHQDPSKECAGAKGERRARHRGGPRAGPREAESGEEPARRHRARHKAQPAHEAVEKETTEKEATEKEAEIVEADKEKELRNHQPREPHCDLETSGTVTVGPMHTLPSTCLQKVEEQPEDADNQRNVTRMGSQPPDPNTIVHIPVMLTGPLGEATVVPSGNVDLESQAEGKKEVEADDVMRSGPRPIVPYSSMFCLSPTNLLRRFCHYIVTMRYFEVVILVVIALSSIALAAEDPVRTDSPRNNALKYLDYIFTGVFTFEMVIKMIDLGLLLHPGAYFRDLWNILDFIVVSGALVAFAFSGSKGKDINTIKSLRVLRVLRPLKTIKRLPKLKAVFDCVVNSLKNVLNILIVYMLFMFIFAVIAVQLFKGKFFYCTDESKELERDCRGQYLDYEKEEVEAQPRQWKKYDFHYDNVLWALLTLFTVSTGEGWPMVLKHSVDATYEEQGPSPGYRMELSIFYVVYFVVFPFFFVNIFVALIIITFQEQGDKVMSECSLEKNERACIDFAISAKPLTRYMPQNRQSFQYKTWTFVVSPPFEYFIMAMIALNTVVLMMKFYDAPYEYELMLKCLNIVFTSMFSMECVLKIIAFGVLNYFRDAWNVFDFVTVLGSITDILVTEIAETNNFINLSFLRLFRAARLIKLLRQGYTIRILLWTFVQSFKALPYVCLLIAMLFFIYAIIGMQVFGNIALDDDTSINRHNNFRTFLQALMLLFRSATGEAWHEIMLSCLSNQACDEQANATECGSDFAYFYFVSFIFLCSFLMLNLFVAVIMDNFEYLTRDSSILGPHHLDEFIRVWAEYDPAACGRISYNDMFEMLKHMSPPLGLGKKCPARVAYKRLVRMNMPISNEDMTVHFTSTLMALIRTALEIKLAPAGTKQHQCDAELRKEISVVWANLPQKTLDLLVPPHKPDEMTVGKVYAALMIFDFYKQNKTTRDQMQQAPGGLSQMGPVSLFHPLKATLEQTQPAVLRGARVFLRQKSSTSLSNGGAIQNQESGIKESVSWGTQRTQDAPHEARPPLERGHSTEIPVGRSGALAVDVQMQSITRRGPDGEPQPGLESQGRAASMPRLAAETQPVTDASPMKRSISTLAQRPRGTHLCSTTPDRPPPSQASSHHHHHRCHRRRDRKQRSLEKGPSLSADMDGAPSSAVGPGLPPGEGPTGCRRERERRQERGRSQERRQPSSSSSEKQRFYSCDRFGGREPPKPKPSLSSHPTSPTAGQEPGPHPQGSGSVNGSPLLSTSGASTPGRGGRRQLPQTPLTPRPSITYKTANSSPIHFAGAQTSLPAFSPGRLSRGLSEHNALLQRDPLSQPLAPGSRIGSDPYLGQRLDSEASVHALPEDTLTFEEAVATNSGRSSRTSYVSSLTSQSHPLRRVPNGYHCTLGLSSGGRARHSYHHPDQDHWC
T1 sequence (P54284 whole entry partner): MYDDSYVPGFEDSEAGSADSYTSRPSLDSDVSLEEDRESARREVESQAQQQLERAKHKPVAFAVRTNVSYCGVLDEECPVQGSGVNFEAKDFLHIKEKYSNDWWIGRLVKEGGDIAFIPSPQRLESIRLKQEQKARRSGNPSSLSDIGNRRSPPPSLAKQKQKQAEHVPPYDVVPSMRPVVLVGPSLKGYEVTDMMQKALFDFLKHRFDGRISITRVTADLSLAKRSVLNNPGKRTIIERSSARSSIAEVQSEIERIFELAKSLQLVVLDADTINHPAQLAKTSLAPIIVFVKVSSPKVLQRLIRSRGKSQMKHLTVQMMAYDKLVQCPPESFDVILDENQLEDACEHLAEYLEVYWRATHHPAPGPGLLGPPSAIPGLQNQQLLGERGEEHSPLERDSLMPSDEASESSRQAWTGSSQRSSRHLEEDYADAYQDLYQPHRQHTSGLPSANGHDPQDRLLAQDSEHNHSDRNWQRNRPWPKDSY
T1 sequence (P54289 25-956 partner limits assumed): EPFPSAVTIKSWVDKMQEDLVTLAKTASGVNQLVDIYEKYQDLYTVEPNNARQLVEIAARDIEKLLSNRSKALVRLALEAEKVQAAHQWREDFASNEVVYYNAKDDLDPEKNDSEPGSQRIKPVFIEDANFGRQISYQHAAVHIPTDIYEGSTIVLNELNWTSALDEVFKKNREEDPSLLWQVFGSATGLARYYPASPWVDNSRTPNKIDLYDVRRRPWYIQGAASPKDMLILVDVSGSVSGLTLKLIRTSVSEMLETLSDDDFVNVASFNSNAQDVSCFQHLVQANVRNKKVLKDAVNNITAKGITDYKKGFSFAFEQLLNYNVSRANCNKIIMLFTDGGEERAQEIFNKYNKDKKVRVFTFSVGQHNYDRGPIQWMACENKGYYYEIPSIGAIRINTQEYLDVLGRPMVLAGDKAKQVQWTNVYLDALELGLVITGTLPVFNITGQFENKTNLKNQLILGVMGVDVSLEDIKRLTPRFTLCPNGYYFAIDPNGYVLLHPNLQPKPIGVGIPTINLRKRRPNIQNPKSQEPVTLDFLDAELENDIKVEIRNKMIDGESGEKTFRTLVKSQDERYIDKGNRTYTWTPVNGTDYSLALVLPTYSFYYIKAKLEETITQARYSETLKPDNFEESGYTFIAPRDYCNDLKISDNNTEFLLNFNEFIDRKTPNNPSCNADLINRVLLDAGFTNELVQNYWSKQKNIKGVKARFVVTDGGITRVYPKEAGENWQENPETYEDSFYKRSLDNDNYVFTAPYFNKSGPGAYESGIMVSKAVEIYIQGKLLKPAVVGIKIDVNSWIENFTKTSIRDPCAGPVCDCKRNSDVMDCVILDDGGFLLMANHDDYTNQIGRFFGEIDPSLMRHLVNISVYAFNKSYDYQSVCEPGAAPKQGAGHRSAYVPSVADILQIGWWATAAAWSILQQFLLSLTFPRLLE
T1 sequence (P54289 957-1103 partner limits assumed): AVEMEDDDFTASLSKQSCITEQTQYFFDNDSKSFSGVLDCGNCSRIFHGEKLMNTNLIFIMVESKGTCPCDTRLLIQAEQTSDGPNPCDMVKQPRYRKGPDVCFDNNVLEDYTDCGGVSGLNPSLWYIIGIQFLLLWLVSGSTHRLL

`O=C(NCC1CC1)c1cnc(N2CCOCC2)nc1-c1ccccc1F` [compound 212]: the IC50 – broadly, the concentration at which inhibition is half-maximal – is greater than 10 µM.

Take `CCC(C)NC(=O)c1cnc(N2CCOCC2)nc1-c1ccccc1F` (centres unmarked) [compound 213]: the IC50 was greater than 10 µM. As to `CCCCNC(=O)c1cnc(NCCCC)nc1-c1cccc(C)c1` [compound 214], the half-maximal inhibitory concentration (IC50) was greater than 10 µM. `CC(C)CN(C)C(=O)c1cnc(N2CCOCC2)nc1-c1ccccc1F` [compound 215] yielded an IC50 greater than 10 µM. As for `CC1CCN(C(=O)c2cnc(NCc3ccccc3C(F)(F)F)nc2-c2ccc(C#N)cc2)CC1` [compound 221], the figure is greater than 10 µM; as for `CCN(C)C(=O)c1cnc(NCCc2ccc(OC)cc2)nc1-c1cccc(C)c1` [compound 234], greater than 10 µM; as for `N#Cc1ccc(-c2nc(NCCc3cccc(F)c3)ncc2C(=O)NCc2ccccc2)cc1` [compound 249], greater than 10 µM. `O=C(c1cnc(N2CCOCC2)nc1-c1ccccc1F)N1CCCC1` [compound 250] came in with a 50% inhibitory concentration (IC50) greater than 10 µM. On to `CC1CCCCC1NC(=O)c1cnc(N2CCOCC2)nc1-c1ccccc1F` (centres unmarked) [compound 254], for which the half-inhibitory concentration (IC50) was greater than 10 µM. As for `O=C(c1cnc(N2CCOCC2)nc1-c1ccccc1F)N1CCOCC1` [compound 275], the 50% inhibitory concentration (IC50) is greater than 10 µM. As for `CC(=O)N1CCN(c2ncc(C(=O)N3CCCCC3)c(-c3ccc(-c4ccccc4)cc3)n2)CC1` [compound 278], the half-maximal inhibitory concentration (IC50) fell in the range of 2 to 10 µM. As for `CN(C(=O)c1cnc(N2CCOCC2)nc1-c1ccccc1F)C1CCCCC1` [compound 283], the half-inhibitory concentration (IC50) was greater than 10 µM.

`N#Cc1ccc(-c2nc(N3CCOCC3)ncc2C(=O)NCc2ccccc2C(F)(F)F)cc1` [compound 287] had a half-inhibitory concentration (IC50) greater than 10 µM. Take `CCN(Cc1ccccc1)C(=O)c1cnc(NC2CCCC2)nc1-c1ccccc1F` [compound 311]: the IC50 was greater than 10 µM. The compound `CCN(C)c1ncc(C(=O)N(Cc2ccccc2)C(C)C)c(-c2ccccc2F)n1` [compound 312] gave a half-inhibitory concentration (IC50) of 2 to 10 µM. In the case of `CCOCCN(CCOCC)C(=O)c1cnc(N2CCOCC2)nc1-c1ccccc1F` [compound 315], the half-inhibitory concentration (IC50) was greater than 10 µM. Compound `Cc1cccc(-c2nc(NCc3cccc(Cl)c3)ncc2C(=O)N2CCOCC2)c1` [compound 318] showed an IC50 greater than 10 µM. For the compound `O=C(NCC1CCCCC1)c1cnc(N2CCOCC2)nc1-c1ccccc1F` [compound 328], the IC50 is greater than 10 µM. Take `CCN(Cc1cccc(C)c1)C(=O)c1cnc(N2CCCC2)nc1-c1ccccc1F` [compound 335]: the half-inhibitory concentration (IC50) was 2 to 10 µM.

Compound `Cc1nc(N2CCOCC2)nc(-c2ccccc2F)c1C(=O)N(Cc1ccccc1)C(C)C` [compound 338, N-benzyl-4-(2-fluorophenyl)-N-isopropyl-6-methyl-2-morpholinopyrimidine-5-carboxamide] yielded a concentration for half-maximal inhibition (IC50) greater than 10 µM.
